Assay results as given in US20180353445A1, “METHODS AND COMPOSITIONS RELATING TO PROTEASOME INHIBITOR RESISTANCE” (Whitehead Institute for Biomedical Research, priority 2017, published 2018).

Tests used:
[1] = system: MCF7, HEK293 and T47D cells; experiment: Viability of cells grown in glucose (glycolytic) vs galactose (Hi-OXPHOS); type: cell-based, human
Procedure: FIGS. 40A-40D: Cancer cell metabolism alters sensitivity to elesclomol.
FIGS. 41A-41B: Cancer cell metabolism alters sensitivity to elesclomol.
FIGS. 51A-51D: Elesclomol preferentially targets cells in the Hi-OXPHOS state. […] The relative cell growth (color coded) was analyzed 72 hours post compound addition. Plotted are the mean SD of at least three replicas and the calculated EC50s (FIGS. 51B-51C). […] Reactive groups are indicated with a colored circle.
FIGS. 57A-57C: Elesclomol preferentially targets cells in the Hi-OXPHOS state. […] Analogs named compound 1-6. […] Plotted are the mean SD of at least three replicas and the calculated EC50s (FIG. 57A and FIG. 57C).

T47D cells = experiment: Elesclomol combined with proteasome inhibitors, control and PSMD2 KD (Lo19S) T47D cells, CellTiter-Glo; type: cell-based, human
Procedure: FIGS. 38A-38D: Elesclomol synergizes with proteasome inhibitors. Validation of drug screen results. Control and PSMD2 knockdown cells were exposed to the indicated concentrations of either ixazomib (FIG. 38A) or elesclomol (FIG. 38B). Control (FIG. 38C) or PSMD2 KD (FIG. 38D) cells were treated with increasing concentrations of ixa.zomib in the presence or absence of the indicated concentrations of elesclomol. Cell viability was examined 72 hours after drug application using CellTiter-Glo.
(FIG. 39B) Cells with the 19S PSMD2 subunit KD were treated with indicated concentration of ixazomib or with indicated concentrations of ixazomib with 4:1 ratio of ixazomib to elesclomol (i,e, the concentration of elesclomol is 4× smaller than the indicated concentration of ixazomib). (FIG. 39C) The experiment described in (FIGS. 39A-39B).
FIGS. 50A-50D: Elesclomol targets the Lo19S state to block proteasome inhibitor resistance. […] The relative viability of the Lo19S versus control cells was calculated for replica experiments and the log2 of the ratio is plotted. […] The relative viability of the respiring cells (Hi-OXPHOS) (gal) versus the control cells (glu) was calculated for replica experiments and the log2 of the ratio is plotted. Specific compounds are annotated. […] Plotted are the mean±−SD of at least three replicas and the calculated EC50s. […]

FDX2 = target: T1, FDX2 (Homo sapiens, UniProt Q6P4F2); experiment: In vitro Fe-S cluster assembly assay with reduced FDX2; type: biochemical; conditions: reduced FDX2 substituted for reduced FDX1
T1 construct: made in house
Text: Fe—S clusters are generated from sulfur extracted from cysteine by the iron sulfur-cluster (ISC) core complex (NFS1-ISD11-Acp-ISCU)2 and iron. A reductant (FDX1 or FDX2) is required for Fc-S cluster biosynthesis (Lill and Muhlenhoff, 2006; Py and Barras, 2010) (FIG. 53A). To investigate the effect of elesclomol on mitochondrial Fe—S cluster biosynthesis, we utilized in vitro Fe—S cluster assembly assays. […] As further confirmation, we examined the effect of elesclomol on electron transfer from reduced FDX1 to the ISC core complex upon the addition of cysteine.
Protein Expression and Purification—Unlabeled samples of ISCU, unlabeled (NFS1-ISD11-Acp)2 (abbreviated as SDA), unlabeled and [U-^15N]-FDX1 (truncated first 61 amino acids) and unlabeled FDX2 were produced and purified as described previously (Cai et al., 2013; Cai et al., 2017a; Cai et al., 20176). FDX1 and FDX2 were reduced by adding a 10-fold excess of sodium dithionite to oxidized FDX1 or FDX2 in an anaerobic chamber (Coy Laboratory). The reduction of FDX1 or FDX2 was monitored by the color change from dark brown to light pink and by recording IN/vis spectra before and after reduction. […]
In vitro Fe—S cluster assembly assay—The in vitro Fe—S cluster assembly assays were carried out as follows. […] The growth of absorbance at 456 nm was used to monitor the assembly of [2Fe-2S] clusters.

[2] = system: relapsed multiple myeloma; experiment: Analysis of phase 2/3 bortezomib clinical trials in relapsed multiple myeloma stratified by 19S subunit expression; type: in vivo, human
Procedure: (All patients were treated with bortezomib.) (FIG. 15B) Reduced expression of 19S subunit expression is correlated with poor tumor suppression response to bortezomib in patients with relapsed myeloma enrolled in phase 2 and phase 3 clinical trials of bortezomib. Plotted is the time to relapse for patients that relapsed that were either treated with bortezomib, stratified by reduced expression of at least one subunit of the 19S proteasome complex or the dexamethasone treated group as a control.
We analyzed gene expression data from 135 patients with relapsed multiple myeloma who participated in Phase II or III trials of bortezomib (˜2007; Mulligan, G., Mitsiades, et al. (2007) Gene expression profiling and correlation with outcome in clinical trials of the proteasome inhibitor hortezomib. Blood 109, 3177-3188) and determined the sigma score for each cancer. […]
Methods details: re-treatment gene expression data from relapsed multiple myeloma patients undergoing clinical trials with bortezomib were downloaded from GSE9782 (34). […] Sigma scores were calculated from all probes. […] P-value was calculated using Wilcoxon test.

T1 sequence (Q6P4F2 53-183): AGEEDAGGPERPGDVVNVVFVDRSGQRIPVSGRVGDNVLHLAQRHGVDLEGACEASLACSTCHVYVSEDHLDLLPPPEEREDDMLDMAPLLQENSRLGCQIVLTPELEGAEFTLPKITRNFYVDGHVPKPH

SMILES | activity against cells in the HI-OXPHOS state [1] | toxicity when grown in the presence of Galactose [1] | sensitivity of cells utilizing mitochondria metabolism vs glycolytic cells ([1]; MCF7 and HEK293 cells) | combination effect with proteasome inhibitors (T47D cells) | inhibition of in vitro Fe-S cluster assembly (FDX2) | time to progression of patients with reduced 19S subunit expression vs patients without ([2]; 34 patients, p-value=0.0086) | effectiveness in patients with reduced expression of 19S proteasome subunit(s) ([2]; vs dexamethasone control)
CN(NC(=O)CC(=O)NN(C)C(=S)c1ccccc1)C(=S)c1ccccc1 [elesclomol] | preferential activity | toxicity is enhanced | much more sensitive | synergizes | almost complete loss of inhibition | – | –
CC(C)C[C@H](NC(=O)[C@H](Cc1ccccc1)NC(=O)c1cnccn1)B(O)O [bortezomib] | – | – | – | – | – | shortened time to progression | no significant effectiveness over the dexamethasone control
